Test results published in patent US7220730B2, “Cancer specific radiolabeled conjugates regulated by the cell cycle for the treatment and diagnosis of cancer” (Board of Regents of the University of Nebraska, priority 2003, dated 2007).

Columns and labels:
[1] = Hydrophobicity / aqueous solubility of the conjugates (descriptive); type: physicochemical
[2] = system: OVCAR-3 cells; test: Binding of ^125IUdR-DHT to OVCAR-3 cells in vitro (Scatchard plot, with/without excess cold DHT)
Method: To generate a Scatchard plot for the binding of ^125IUdR-DHT to OVCAR-3 cells, OVCAR-3 cells were thawed from a stock or freshly harvested by a lavage of the peritoneal cavity of athymic mice bearing intraperitoneal ascites OVCAR-3 tumors. The cells were twice washed with full media (RPMI 1640 medium with 2 mM L-glutamine adjusted to contain 1.5 g/L sodium bicarbonate, 4.5 g/L glucose, 10 mM HEPES, and 1.0 mM sodium pyruvate and supplemented with 0.01 mg/ml bovine insulin, 80%; fetal bovine serum, 20%). The cells were spun at 450 rpm for 10 minutes to collect a cell pellet and were then resuspended in full media to achieve approximately 5×10^6 cells/mL. The cells were counted and their viability was determined by Trypan Blue staining. “Cold” dihydrotestosterone (DHT) was dissolved in 95% ethanol to create a stock solution of 5 μg/mL. Similarly, 95% ethanol was added to ^125IUdR-DHT to produce 250,000 cpm/100 μL.
The tubes were capped and gently vortexed. The “total applied” counts were then determined in a gamma counter. […] A known volume of the supernatant from the centrifugation was transfered to new plastic tubes and counted in a gamma counter to determine the “free” counts. The cell pellet with the remainder of the supernatant was then counted in the gamma counter. “Bound” counts were then determined by subtracting counts associated with the supernatant from the remaining counts.

[3] = system: OVCAR-3 cells; test: Stability of ^125IUdR-DHT in growth medium in the presence or absence of OVCAR-3 cells (TLC); type: in vitro ADME
Method: OVCAR-3 cells in full growth medium (RPMI 1640 medium with 2 mM L-glutamine adjusted to contain 1.5 g/L sodium bicarbonate, 4.5 g/L glucose, 10 mM HEPES, and 1.0 mM sodium pyruvate and supplemented with 0.01 mg/ml bovine insulin, 80%; fetal bovine serum, 20%) at 1×10^6 cells per flask were plated onto three Petri dishes and allowed to attach for 24 hours. As a control, one dish without cells was subjected to the same treatments. After 24 hours, the cells were trypsinized from one dish to determine cell number and viability. The media was then aspirated from the remaining dishes, including the control, and replaced with 1 mL of fresh media. 0.1 mCi of ^125IUdR-DHT in 0.10 mL of ethanol was added to all of the dishes. The dishes were incubated at 37° C. At 0, 5, 15, 30, 60, 120, 180, and 240 minutes, 10 μL of media was removed from each of the dishes of which 2 μL was added to a silica gel TLC plate. Additionally, 2 μL was added to glass gamma counter tubes as standards. The TLC plates were run with a 3:1 mixture of ethyl acetate and hexane (v/v). When the solvent front approached the end of the plate, the plate was removed from the solvent, dried, and cut into strips. The standards and the strips were then counted. The percent recovered ^125IUdR-DHT was calculated as a ratio of the intact ^125IUdR-DHT at a given timepoint divided by the intact ^125IUdR-DHT at the 0 minute timepoint (see FIG. 2A). Similar calculations were used to determine the kinetics of the appearance of ^125IUdR in the medium, which was determined to occur at a rate of 8.5%/hour (FIG. 2B). This rate is in comparison to the disappearance of ^125IUdR-DHT from the media at a rate of 16%/hour. […] The inclusion of a negatively-charged monophosphate assists in the retention of these compounds in the cell.
This allows at least a partial retention of the negatively charged succinate inside the cell where the next hydrolytic step frees ^125IUdR to be taken up by DNA.

[4] = Biodistribution in athymic mice bearing AR-expressing OVCAR-3 tumors; type: in vivo
From the text: (§1) With regard to ^125IUdR-3′-DHT, the biodistribution of the reagent (0.001–0.010 mCi/mouse; […]) in athymic mice bearing AR-expressing OVCAR-3 tumors is seen in Table 3. Additionally, the efficacy of the reagent against the intraperitoneal OVCAR-3 tumors after 6 fractionated doses (0.1 mCi/dose/mouse; […]) is seen in Table 4.

[5] = system: intraperitoneal OVCAR-3 tumors; test: Efficacy against intraperitoneal OVCAR-3 tumors after 6 fractionated doses; type: in vivo, athymic mice; conditions: 0.1 mCi/dose/mouse
From the text: as §1

[6] = target: T1, sex hormone binding globulin (SHBG) (Homo sapiens, UniProt P04278); test: Binding of 5′-MP-^125IUdR-3′-DHT to sex hormone binding globulin (charcoal-dextran, size-exclusion HPLC); conditions: FIG. 3
T1 sequence (P04278 30-402): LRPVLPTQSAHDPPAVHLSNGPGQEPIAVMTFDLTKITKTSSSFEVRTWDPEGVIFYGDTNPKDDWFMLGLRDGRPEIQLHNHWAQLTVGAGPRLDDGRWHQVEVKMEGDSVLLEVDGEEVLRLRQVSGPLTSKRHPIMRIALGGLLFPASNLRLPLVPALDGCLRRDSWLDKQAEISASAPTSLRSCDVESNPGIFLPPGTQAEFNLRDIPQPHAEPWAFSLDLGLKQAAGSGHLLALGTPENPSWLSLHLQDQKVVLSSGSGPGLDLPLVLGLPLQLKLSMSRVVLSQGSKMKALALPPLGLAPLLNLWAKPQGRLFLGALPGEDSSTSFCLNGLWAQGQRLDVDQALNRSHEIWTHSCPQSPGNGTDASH
Method: The tubes were then vortexed for about 30 seconds and incubated for 10 minutes in a water bath at 37° C. The samples were then incubated at 0–4° C. for 3 hours. 0.1 mL aliquots were removed from the samples and counted in a gamma counter. To each tube, 0.4 mL of ice-cold charcoal-dextran solution was added and the tubes were incubated on ice for 15 minutes. The samples were then centrifuged at 4° C. for 20 minutes at 1,000 rpm. 0.5 ml aliquots were taken for gamma-counting and the residue was also counted. Selected samples were analyzed by size-exclusion HPLC (tandem TSK2000 and TSK3000 size exclusion columns (TosoHaas; Montgomeryville, Pa.) with a guard column using PBS, pH7.2 as the eluant).

[7] = OVCAR-3 cells, full growth medium, 37° C.

With `CC12CCC(=O)CC1CCC1C2CCC2(C)C(OP(=O)(OCC3OC(n4cc([125I])c(=O)[nH]c4=O)CC3O)OC3CCC4C5CCC6CC(=O)CCC6(C)C5CCC34C)CCC12` (stereo not shown) [Conjugate 5, 5′-[^125I]iodo-2′-deoxy-5′-monphosphate-O-(bis-dihydrotestosterone)] the “hydrophilicity / hydrophobicity relative to the other conjugates” value [1] was “most hydrophobic”.
In the case of `CC12CCC(=O)CC1CCC1C2CCC2(C)C(OC(=O)CCC(=O)OC3CC(n4cc([125I])c(=O)[nH]c4=O)OC3CO)CCC12` (stereo not shown) [^125IUdR-DHT, ^125IUdR-3′-succinyl-DHT], the “binding to OVCAR-3 cells (Scatchard)” value ([2]; 5 × 10^6 cells, 0–4° C., 14–16 hours) is reported as “single type of binding sites with a high affinity”, the “competition by excess DHT for binding” value ([2]; excess “cold” DHT) is reported as “due to the DHT portion of the drug” and the “rate of appearance of ^125IUdR in the medium” value [3, 7] is reported as 8.5 %/hour. The “rate of disappearance of ^125IUdR-DHT from the media” value [3, 7] was 16 %/hour, the “emergence of “free” ^125IUdR in the growth medium” value ([3]; presence or absence of OVCAR-3 cells) was “requires interaction of the drugs with specific cells” and the “Percent injected dose per gram tissue” value ([4]; Blood, 1.5 h, average of n = 10) was 29.61 Percent injected dose per gram tissue. For the same molecule, the “Percent injected dose per gram tissue” value ([4]; Blood, 24 h, average of n = 10) was 0.25 Percent injected dose per gram tissue, the “Percent injected dose per gram tissue” value ([4]; Blood, 48 h, average of n = 10) was 0.30 Percent injected dose per gram tissue and the “Percent injected dose per gram tissue” value ([4]; Blood, 72 h, average of n = 10) was 0.17 Percent injected dose per gram tissue. The “Percent injected dose per gram tissue” value ([4]; Brain, 1.5 h) was 1.91 Percent injected dose per gram tissue, the “Percent injected dose per gram tissue” value ([4]; Brain, 24 h) was 0.03 Percent injected dose per gram tissue and the “Percent injected dose per gram tissue” value ([4]; Brain, 48 h) was 0.05 Percent injected dose per gram tissue. The “Percent injected dose per gram tissue” value ([4]; Brain, 72 h) was 0.04 Percent injected dose per gram tissue, the “Percent injected dose per gram tissue” value ([4]; Kidney, 1.5 h) was 17.67 Percent injected dose per gram tissue and the “Percent injected dose per gram tissue” value ([4]; Kidney, 24 h) was 0.20 Percent injected dose per gram tissue. The “Percent injected dose per gram tissue” value ([4]; Kidney, 48 h) was 0.18 Percent injected dose per gram tissue, the “Percent injected dose per gram tissue” value ([4]; Kidney, 72 h) was 0.22 Percent injected dose per gram tissue and the “Percent injected dose per gram tissue” value ([4]; Liver, 1.5 h) was 11.07 Percent injected dose per gram tissue. The “Percent injected dose per gram tissue” value ([4]; Liver, 24 h) was 0.24 Percent injected dose per gram tissue, the “Percent injected dose per gram tissue” value ([4]; Liver, 48 h) was 0.32 Percent injected dose per gram tissue and the “Percent injected dose per gram tissue” value ([4]; Liver, 72 h) was 0.33 Percent injected dose per gram tissue. For the same molecule, the “Percent injected dose per gram tissue” value ([4]; OVCAR-3 tumor (IP), 1.5 h) was 20.70 Percent injected dose per gram tissue, the “Percent injected dose per gram tissue” value ([4]; OVCAR-3 tumor (IP), 24 h) was 5.66 Percent injected dose per gram tissue and the “Percent injected dose per gram tissue” value ([4]; OVCAR-3 tumor (IP), 48 h) was 5.41 Percent injected dose per gram tissue. For the same molecule, the “Percent injected dose per gram tissue” value ([4]; OVCAR-3 tumor (IP), 72 h) was 3.54 Percent injected dose per gram tissue, the “Percent injected dose per gram tissue” value ([4]; Spleen, 1.5 h) was 15.60 Percent injected dose per gram tissue and the “Percent injected dose per gram tissue” value ([4]; Spleen, 24 h) was 0.59 Percent injected dose per gram tissue. The “Percent injected dose per gram tissue” value ([4]; Spleen, 48 h) was 0.44 Percent injected dose per gram tissue, the “Percent injected dose per gram tissue” value ([4]; Spleen, 72 h) was 0.59 Percent injected dose per gram tissue and the “Percent injected dose per gram tissue” value ([4]; Uterus, 1.5 h) was 11.43 Percent injected dose per gram tissue. For the same molecule, the “Percent injected dose per gram tissue” value ([4]; Uterus, 24 h) was 0.54 Percent injected dose per gram tissue, the “Percent injected dose per gram tissue” value ([4]; Uterus, 48 h) was 0.66 Percent injected dose per gram tissue and the “Percent injected dose per gram tissue” value ([4]; Uterus, 72 h) was 0.97 Percent injected dose per gram tissue. For the same molecule, the “Percent injected dose per gram tissue” value ([4]; solid OVCAR-3 (approximately 2 mice per group), 1.5 h) was 12.94 Percent injected dose per gram tissue, the “Percent injected dose per gram tissue” value ([4]; solid OVCAR-3 (approximately 2 mice per group), 24 h) was 0.67 Percent injected dose per gram tissue and the “Percent injected dose per gram tissue” value ([4]; solid OVCAR-3 (approximately 2 mice per group), 48 h) was 0.28 Percent injected dose per gram tissue. For the same molecule, the “Percent injected dose per gram tissue” value ([4]; solid OVCAR-3 (approximately 2 mice per group), 72 h) was 0.24 Percent injected dose per gram tissue, the median tumor size [5] was 0.244 g and the “range (tumor size)” value [5] was 0.012 to 0.781 g. The mean tumor burden ([5]; average (n = 10) and standard deviation) was 0.304 ± 0.320 g.
With `CC12CCC(=O)CC1CCC1C2CCC2(C)C(OC(=O)CCC(=O)OC3CC(n4cc([125I])c(=O)[nH]c4=O)OC3COP(=O)(O)O)CCC12` (stereo not shown) [5′-MP-^125IUdR-3′-DHT, 5′-monophosphate-^125IUdR-3′-succinyl-DHT] the “binding to SHBG” value [6] was “specifically bound” and the “competition of SHBG binding by “cold” DHT” value [6] was “competed away”.
